Test results taken from ChEMBL document CHEMBL3351591, “Synthetic (+)-terrein suppresses interleukin-6/soluble interleukin-6 receptor induced-secretion of vascular endothelial growth factor in human gingival fibroblasts” (Bioorg Med Chem, 2014).
Active and inactive are the calls of the source. The rule behind the calls is not given here.

Tests used:
[1] = Cytotoxicity against HGF cells assessed as cell proliferation at <10 uM incubated for 24 hrs by MTT assay; type: cell-based; conditions: human
[2] = Cytotoxicity against HGF cells assessed as reduction in cell proliferation at >50 uM incubated for 24 hrs by MTT assay; type: cell-based; conditions: human
[3] = tested on: HGF; assay: Inhibition of IL-6/soluble IL-6 receptor signaling-induced VEGF secretion in HGF cells pre-incubated for 30 mins before IL-6/soluble IL-6 receptor stimulation for 24 hrs by ELISA method; type: cell-based; conditions: Homo sapiens
[4] = tested on: HGF; assay: Inhibition of IL-6/soluble IL-6 receptor signaling-induced STAT3 phosphorylation in HGF cells pre-incubated at 10 to 20 uM for before IL-6/soluble IL-6 receptor stimulation for 5 mins by Western blotting method; type: cell-based; conditions: Homo sapiens
[5] = tested on: HGF; assay: Inhibition of IL-6/soluble IL-6 receptor signaling-induced ERK1/2 phosphorylation in HGF cells pre-incubated at 10 to 20 uM for before IL-6/soluble IL-6 receptor stimulation for 5 mins by Western blotting method; type: cell-based; conditions: Homo sapiens
[6] = tested on: HGF; assay: Inhibition of IL-6/soluble IL-6 receptor signaling-induced JNK1/2 phosphorylation in HGF cells pre-incubated at 10 to 20 uM for before IL-6/soluble IL-6 receptor stimulation for 5 mins by Western blotting method; type: cell-based; conditions: Homo sapiens
[7] = tested on: HGF; assay: Inhibition of endogenous VEGF secretion in HGF cells at 0.01 to 10 uM by ELISA method; type: functional, cell-based; conditions: Homo sapiens

## C/C=C/C1=CC(=O)[C@H](O)[C@H]1O
[1]
  Activity: Non-toxic
[2]
  Activity: Toxic
[3]
  inhibition: Dose-dependent effect
[4]
  inhibition: Active
[5]
  inhibition: Active
[6]
  inhibition: Active
[7]
  inhibition: inactive
